# Article PMC4793717 (Pharmacology, 2013)
# “Also recorded” adds a separate entry of the source. Read-outs that look alike come from different tables or passages of the source.
# Tests used:
# [1] = tested on: TrkB receptor; conditions: cited from earlier work
# [2] = tested on: mice; assay: Forced swim test; assay type: in vivo, C57BL/6J mice; conditions: 5 mg/kg orally once a day for 21 days
# [3] = In vivo pharmacokinetic study of 7,8-DHF, plasma and brain by HPLC-MS/MS; set-up: species or system CD-1 mice; conditions: for half-life: T1/2, plasma
# [4] = biological target: T1, TrkB (Mus musculus, UniProt P15209); assay: TrkB activation in mouse brain after oral gavage; assay type: in vivo, C57BL/6J mice; conditions: 5 mg/kg oral gavage, brain collected at 2 h
# T1 sequence (P15209 32-821): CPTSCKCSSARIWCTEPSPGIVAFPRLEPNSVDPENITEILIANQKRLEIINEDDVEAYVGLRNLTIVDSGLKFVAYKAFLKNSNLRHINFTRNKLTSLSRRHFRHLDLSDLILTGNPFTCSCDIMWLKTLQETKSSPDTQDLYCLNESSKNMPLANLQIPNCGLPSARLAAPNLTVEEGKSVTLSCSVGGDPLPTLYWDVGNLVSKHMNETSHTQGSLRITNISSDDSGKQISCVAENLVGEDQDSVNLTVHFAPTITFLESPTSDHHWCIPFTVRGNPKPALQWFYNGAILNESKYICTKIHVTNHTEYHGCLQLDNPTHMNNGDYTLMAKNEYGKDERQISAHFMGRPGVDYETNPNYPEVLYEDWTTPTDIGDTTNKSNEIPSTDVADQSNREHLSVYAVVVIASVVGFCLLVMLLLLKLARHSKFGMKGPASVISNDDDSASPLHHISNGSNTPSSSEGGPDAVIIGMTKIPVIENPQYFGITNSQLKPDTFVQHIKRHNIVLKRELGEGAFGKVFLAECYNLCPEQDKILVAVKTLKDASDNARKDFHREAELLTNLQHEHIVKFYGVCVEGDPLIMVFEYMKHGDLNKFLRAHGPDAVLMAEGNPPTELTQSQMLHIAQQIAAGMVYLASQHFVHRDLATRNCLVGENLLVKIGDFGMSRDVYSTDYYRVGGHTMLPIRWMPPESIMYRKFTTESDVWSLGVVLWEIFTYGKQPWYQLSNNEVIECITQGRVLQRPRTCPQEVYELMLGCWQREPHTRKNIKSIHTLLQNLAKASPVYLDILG
# [5] = tested on: dentate gyrus; assay: Neurogenesis assay via BrdU incorporation in the dentate gyrus; assay type: in vivo, C57BL/6J mice; conditions: 5 mg/kg orally for 21 days
# [6] = biological target: T1, TrkB; assay: Immunohistochemistry staining of p-TrkB in the dentate gyrus; assay type: in vivo, mice; conditions: 5 mg/kg orally for 21 days
# [7] = tested on: mice; assay: Tail suspension test; assay type: in vivo, C57BL/6J mice; conditions: 5 mg/kg orally once a day for 21 days
# [8] = biological target: T2, TrkB receptor (Rattus norvegicus, UniProt Q63604); assay: TrkB activation in primary cortical neurons; assay type: cell-based; conditions: for TrkB activation in primary neurons (p-TrkB Y816): 500 nmol/l, 15 min, primary cortical neurons
# T2 sequence (Q63604 32-821): as the sequence (P15209 32-821) above, with T3M, S9T, A10T, V32I, R63K, S84G, M153T, L185I, S394T, S770N counted along it
# [9] = tested on: Caco-2; assay: In vitro Caco-2 permeability assay; assay type: in vitro ADME; conditions: test conc. 10 μmol/l, 2 h
# [10] = In vitro Caco-2 permeability assay; assay type: in vitro ADME; conditions: human, Caco-2
# [11] = biological target: T1, TrkB; conditions: oral administration, at 2 or 4 h; cited from earlier work
# [12] = tested on: Akt; assay: p-Akt ELISA of mouse brain samples; assay type: in vivo, C57BL/6J mice; conditions: for p-Akt versus control in entacapone-treated and tolcapone-treated groups (ELISA): COMT inhibitor 30 mg/kg pretreatment, flavonoid 5 mg/kg
# [13] = tested on: mice; conditions: cited from earlier work
# [14] = chronic treatment, dose of 5 mg/kg; cited from earlier work
# [15] = tested on: dentate gyrus; conditions: chronic treatment; cited from earlier work
# [16] = biological target: T2, TrkB receptor; conditions: cited from earlier work
# [17] = male, CD-1, mouse, plasma, po, 50 mg/kg, mice, after 7,8-DHF p.o. 50 mg/kg
# [18] = mice, after 7,8-DHF p.o. 50 mg/kg
# [19] = male, CD-1, mouse, plasma, po, 50 mg/kg
molecule,measurement,setting,value
"O=c1cc(-c2ccccc2)oc2cc(O)cc(O)c12 [5,7-dihydroxyflavone]",TrkB agonistic effect,[1],"but not 5,6-dihydroxyflavone or 5,7-dihydroxyflavone possess a TrkB agonistic effect"
"COc1ccc2c(=O)cc(-c3ccccc3)oc2c1O [H428, 7-methoxy-8-hydroxyflavone]",immobility in FST,[2],strongest effect
same,half-life,[3]; [17],1.53 h
same,earliest detection in plasma,[3]; [18],3 min
same,plasma concentration at 6 h,[3]; [18],below the quantitative limit
same,detection in mouse brain at any time,"[3]; mice, after 7,8-DHF p.o. 50 mg/kg, 50 mg/kg",below the limit of quantification
same,TrkB activation in mouse brain (p-TrkB Y816),[4],clearly activated the TrkB receptor compared to vehicle control
same,neurogenesis (BrdU-positive cells in the dentate gyrus),[5],significantly promoted neurogenesis compared to vehicle
same,TrkB phosphorylation in the dentate gyrus (immunohistochemistry),[6],strongly provoked TrkB phosphorylation in the dentate gyrus
same,immobility in TST,[7],substantially decreased the immobility
same,TrkB activation in primary neurons (p-TrkB Y816),[8],activates the TrkB receptor in primary neurons
"COc1c(O)ccc2c(=O)cc(-c3ccccc3)oc12 [8-methoxy-metabolite, 7-hydroxy-8-methoxyflavone]",half-life,[3]; [17],2.47 h
same,earliest observation in brain,[3]; [18],3 min
"CC(=O)CC(c1ccccc1)c1c(O)c2ccccc2oc1=O (centres unmarked) [Warfarin, reference compound]",Comment (Caco-2 permeability),[9],high permeability control
same,"Papp A→B at 2 h, 10 μmol/l",[10],52.6 ×10⁻⁶ cm/s
same,"Papp B→A at 2 h, 10 μmol/l",[10],18.3 ×10⁻⁶ cm/s
same,"efflux ratio at 2 h, 10 μmol/l",[10],0.3
"CNC(=C[N+](=O)[O-])NCCSCc1ccc(CN(C)C)o1 [Ranitidine, reference compound]",Comment (Caco-2 permeability),[9],"low permeability, efflux"
same,"Papp A→B at 2 h, 10 μmol/l",[10],0.3 ×10⁻⁶ cm/s
same,"Papp B→A at 2 h, 10 μmol/l",[10],2.9 ×10⁻⁶ cm/s
same,"efflux ratio at 2 h, 10 μmol/l",[10],10.9
COc1ccc2c(=O)cc(-c3ccccc3)oc2c1OC [D024],TrkB activation in mouse brain (p-TrkB Y816),[4],"elicited TrkB activation (p-TrkB Y816), but the effect was not as strong as that of the other two compounds"
same,p-TrkB 706 immunoblotting in mouse brain,[4],elicited the strongest p-TrkB signal
"O=c1cc(-c2ccccc2)oc2ccc(O)c(O)c12 [5,6-dihydroxyflavone]",TrkB agonistic effect,[1],"but not 5,6-dihydroxyflavone or 5,7-dihydroxyflavone possess a TrkB agonistic effect"
"O=c1cc(-c2cccc(O)c2)oc2cc(O)c(O)cc12 [6,7,3′-trihydroxyflavone]",TrkB agonistic effect,[1],possess a TrkB agonistic effect
"CN(C)c1ccc(-c2cc(=O)c3ccc(O)c(O)c3o2)cc1 [4′-DMA-7,8-DHF, 4′-dimethylamino-7,8-DHF]",Comment (Caco-2 permeability),[9],poor recovery A to B
same,Mean A→B Papp,[9],0.9 10^−6 cm•s^−1
same,Mean B→A Papp,[9],3.1 10^−6 cm•s^−1
same,Efflux ratio,[9]; >2 indicates significant efflux activity,3.6
same,TrkB activation in mouse brain (p-TrkB Y816),[4],obviously activated TrkB compared to vehicle control
same,TrkB activation in mouse brain,[11],evidently activates the TrkB receptor in mouse brain
same,Akt activation in mouse brain (p-Akt ELISA),"[12]; 1 mg/kg oral, 2 h",potently activated Akt
same,p-Akt versus control in entacapone-treated and tolcapone-treated groups (ELISA),[12],no significant changes
same,immobility in FST,[13]; chronic treatment,robustly decreased the immobility in FST after chronic treatment
same,TrkB activation in primary neurons (p-TrkB Y816),[8],"more robust TrkB agonistic activity than 7,8-DHF; also recorded: activated TrkB receptor signaling pathways in primary neurons"
"O=c1cc(-c2ccccc2)oc2c(O)c(O)ccc12 [7,8-DHF, 7,8-Dihydroxyflavone]",toxicity,[14],reveals no demonstrable toxicity
same,brain concentration of parent compound relative to methylated metabolite,"[3]; brain, mice, after 7,8-DHF p.o. 50 mg/kg",approximately 30 fold
same,Cmax,"[3]; male, CD-1, mouse, brain, po, 50 mg/kg",70 ng/mL
same,AUC(0-inf),[3]; [19],125 ng·h/mL
same,AUC(0-t),[3]; [19],108 ng·h/mL
same,Cmax,[3]; [19],70 ng/mL
same,Tmax,[3]; [19],0.167 h
same,half-life,[3]; [17],~2.23 h
same,brain concentration at 6 h,[3]; [18],below the quantitative limit
same,penetration of the brain-blood barrier,"[3]; mice, oral dosing of 50 mg/kg 7,8-DHF",can penetrate the brain-blood barrier
same,Comment (Caco-2 permeability),[9],poor recovery A to B
same,"Papp A→B at 2 h, 10 μmol/l",[10],1.5 ×10⁻⁶ cm/s
same,"Papp B→A at 2 h, 10 μmol/l",[10],1.7 ×10⁻⁶ cm/s
same,"efflux ratio at 2 h, 10 μmol/l",[10],1.2
same,TrkB activation in mouse brain (p-TrkB Y816),[4],clearly activated the TrkB receptor compared to vehicle control; also recorded: obviously activated TrkB compared to vehicle control
same,neurogenesis in the dentate gyrus,[15],enhances neurogenesis in the dentate gyrus
same,TrkB activation in mouse brain,[11],evidently activates the TrkB receptor in mouse brain
same,p-Akt versus control in entacapone-treated and tolcapone-treated groups (ELISA),[12],no significant changes
same,latency of immobility,[13]; acute injection,has no effect on the latency of immobility
same,immobility in FST,[13]; chronic treatment,robustly decreased the immobility in FST after chronic treatment
same,immobility in FST,[13]; subchronic intraperitoneal injection,significantly decreases immobility in FST
same,concentration at which TrkB phosphorylation was prominent,[16],100 nmol/L
"O=c1cc(-c2ccccc2)oc2cc(O)c(O)cc12 [6,7-dihydroxyflavone]",TrkB agonistic effect,[1],possess a TrkB agonistic effect
"BDNF: Brain-derived neurotrophic factor, member of the neurotrophin family; positive control from Roche (protein, UniProt P23560 19-247, looked up) Neurotrophic factor BDNF …: APMKEANIRGQGGLAYPGVRTHGTLESVNGPKAGSRGLTSLADTFEHVIEELLDEDQKVRPNEENNKDADLYTSRVMLSSQVPLEPPLLFLLEEYKNYLDAANMSMRVRRHSDPARRGELSVCDSISEWVTAADKKTAVDMSGGTVTVLEKVPVSKGQLKQYFYETKCNPMGYTKEGCRGIDKRHWNSQCRTTQSYVRALTMDSKKRIGWRFIRIDTSCVCTLTIKRGR",concentration eliciting TrkB activation,[8]; titration assay in primary neurons,1 to 30 nmol/L
